Where “and” joins values, the source holds several entries; their conditions need not be identical. Equal entries are not always repeated. Where two headings read alike, the source gives them in different places. Marks after values point to notes of the source that are not given here.
Assays:
COX-2 = target: T1, COX-2 (Homo sapiens, UniProt P35354); experiment: Cyclooxygenase-2 inhibitory activity; assay type: biochemical; conditions: for inhibition at 62.5 µg/mL / inhibition at 250 µg/mL / inhibition at 500 µg/mL / inhibition at 1000 µg/mL: read-out: % inhibition, COX-2 (mean ± SEM); for Percent Inhibition (COX-2), single replicates: replicates 1-3; for IC50: COX-2
T1 sequence (P35354 18-604): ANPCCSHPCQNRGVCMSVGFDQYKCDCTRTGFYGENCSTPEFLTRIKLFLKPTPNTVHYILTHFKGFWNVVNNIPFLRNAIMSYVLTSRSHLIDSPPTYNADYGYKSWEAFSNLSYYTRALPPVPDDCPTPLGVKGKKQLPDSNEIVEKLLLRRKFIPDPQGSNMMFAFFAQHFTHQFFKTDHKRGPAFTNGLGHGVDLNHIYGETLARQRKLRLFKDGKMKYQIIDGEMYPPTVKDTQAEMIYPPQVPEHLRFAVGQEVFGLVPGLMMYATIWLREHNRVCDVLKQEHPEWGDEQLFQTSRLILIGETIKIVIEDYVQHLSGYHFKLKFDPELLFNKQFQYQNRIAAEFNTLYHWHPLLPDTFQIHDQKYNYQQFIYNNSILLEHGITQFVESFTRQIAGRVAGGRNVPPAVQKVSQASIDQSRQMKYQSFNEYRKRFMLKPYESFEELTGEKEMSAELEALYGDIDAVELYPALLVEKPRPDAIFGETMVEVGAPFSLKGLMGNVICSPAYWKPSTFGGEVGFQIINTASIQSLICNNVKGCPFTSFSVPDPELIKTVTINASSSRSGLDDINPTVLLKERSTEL
Procedure: An enzyme solution with a concentration of 300 U/ml was prepared and activated using ice for 5 min with a 50 µL cofactor solution containing glutathione (0.9 mM), TMPD (N,N,N,N_tetramethyl-p-phenylenediaminedihydrochloride) (0.24 mM), and hematin (1 mM) in Tris buffer (0.1 M) with pH 8. The enzyme solution (60 µL) and test samples (20 µL) with various concentrations were incubated at room temperature for 5 minutes. Celecoxib was used as a positive control in the current assay. The absorbance of the samples was measured at 570 nm after the samples had been incubated for 5 min. Arachidonic acid (30 mM, 20 µL) was added to initiate the reaction. The percent inhibition was calculated from the absorbance value per unit time.

Swiss albino mice = experiment: Acetic acid-induced writhing test; assay type: in vivo; conditions: for Writhes, individual values: single animals; for % analgesic activity (writhing inhibition) / Mean writhes: oral
Procedure: An anti-nociceptive assessment was performed on Swiss albino mice of both sexes, sourced from the National Institute of Health, Islamabad, Pakistan. […] Mice of either sex were divided into different groups, with five mice in each group. The test samples were carefully administered orally, with doses of 250, 500, 1000, and 2000 mg/kg.
I. rugosus was evaluated for its analgesic potential through an acetic acid-induced writhing test. Oral administration of the test samples was carried out using specified doses. After 30 min of interval, 10 ml/kg of acetic acid (0.6%) was injected into the mice. Group I served as the control and received 0.5% Tween-80 (3 ml/kg), group II received diclofenac sodium (10 mg/kg), and groups III and IV received test compounds. The count of writhes was recorded between 5 and 30 min, following the i/p injection of acetic acid ([Franzotti et al., 2000]).

O=C(O)C=Cc1ccc(O)c(O)c1 [Compound 1, 3,4-dihydroxy-cinnamic acid]
% inhibition, COX-2 (mean ± SEM) (COX-2; 62.5 µg/ml, listed as Comp 1): 51.9833% | inhibition at 62.5 µg/mL (COX-2; 62.5 µg/ml): 51.6 ± 1.2% | % inhibition, COX-2 (mean ± SEM) (COX-2; 250 µg/ml, listed as Comp 1): 62.5167% | inhibition at 250 µg/mL (COX-2; 250 µg/ml): 62.5 ± 0.84% | % inhibition, COX-2 (mean ± SEM) (COX-2; 500 µg/ml, listed as Comp 1): 68.4433% | inhibition at 500 µg/mL (COX-2; 500 µg/ml): 68.42 ± 0.64% | % inhibition, COX-2 (mean ± SEM) (COX-2; 1000 µg/ml): 72.63 ± 0.57 % | inhibition at 1000 µg/mL (COX-2; 1000 µg/ml): 72.8% | Percent Inhibition (COX-2), single replicates (COX-2; 62.5, listed as Comp 1): 51.85% and 51.98% and 52.12% | Percent Inhibition (COX-2), single replicates (COX-2; 125, listed as Comp 1): 58.82% and 58.96% and 58.41% | Percent Inhibition (COX-2), single replicates (COX-2; 250, listed as Comp 1): 62.79% and 63.2% and 61.56% | Percent Inhibition (COX-2), single replicates (COX-2; 500, listed as Comp 1): 68.4% and 67.99% and 68.94% | Percent Inhibition (COX-2), single replicates (COX-2; 1000, listed as Comp 1): 72.37% and 73.56% and 71.96% | Writhes, individual values (Swiss albino mice; 10mg, listed as Comp 1): 60 and 58.9 and 55.1 | Writhes, individual values (Swiss albino mice; 20mg, listed as Comp 1): 50.1 and 48.2 and 49.71 | Writhes, individual values (Swiss albino mice; 25mg, listed as Comp 1): 45.64 and 46.56 and 47.8 | Writhes, individual values (Swiss albino mice; 50mg, listed as Comp 1): 22.1 and 23.29 and 24.51 | % analgesic activity (writhing inhibition) (Swiss albino mice; dose 10 mg/kg): 05.10% and 05.10^ns % | % analgesic activity (writhing inhibition) (Swiss albino mice; dose 20 mg/kg): 19.88% and 19.88^ns % | Mean writhes (Swiss albino mice; dose 20 mg/kg): 49.33 ± 0.87 | Mean writhes (Swiss albino mice; dose 20 mg/kg, listed as Comp 1, 20 mg/kg): 49.3367 | % analgesic activity (writhing inhibition) (Swiss albino mice; dose 25 mg/kg): 24.78% | Mean writhes (Swiss albino mice; dose 25 mg/kg): 46.67 ± 0.87 | Mean writhes (Swiss albino mice; dose 25 mg/kg, listed as Comp 1, 25 mg/kg): 46.6667 | % analgesic activity (writhing inhibition) (Swiss albino mice; dose 50 mg/kg): 62% and 61.90% | Mean writhes (Swiss albino mice; dose 50 mg/kg): 23.30 ± 0.62 | Mean writhes (Swiss albino mice; dose 50 mg/kg, listed as Comp 1, 50 mg/kg): 23.3

O=C(CCc1ccc(O)cc1)c1c(O)cc(O)cc1O [Compound 2, 2-4-4-6-tetrahydroxy-dihydrochalcone]
% inhibition, COX-2 (mean ± SEM) (COX-2; 62.5 µg/ml, listed as Comp 2): 31.8267% | inhibition at 62.5 µg/mL (COX-2; 62.5 µg/ml): 31.9 ± 0.92% | % inhibition, COX-2 (mean ± SEM) (COX-2; 250 µg/ml, listed as Comp 2): 41.1767% | inhibition at 250 µg/mL (COX-2; 250 µg/ml): 41.1 ± 0.24% | % inhibition, COX-2 (mean ± SEM) (COX-2; 500 µg/ml, listed as Comp 2): 45.1433% | inhibition at 500 µg/mL (COX-2; 500 µg/ml): 45.1 ± 0.22% | % inhibition, COX-2 (mean ± SEM) (COX-2; 1000 µg/ml, listed as Comp 2): 52.9867% | inhibition at 1000 µg/mL (COX-2; 1000 µg/ml): 53 ± 0.79% | Percent Inhibition (COX-2), single replicates (COX-2; 62.5, listed as Comp 2): 31.46% and 31.74% and 32.28% | Percent Inhibition (COX-2), single replicates (COX-2; 125, listed as Comp 2): 37.07% and 37.62% and 35.7% | Percent Inhibition (COX-2), single replicates (COX-2; 250, listed as Comp 2): 40.49% and 41.18% and 41.86% | Percent Inhibition (COX-2), single replicates (COX-2; 500, listed as Comp 2): 45.69% and 44.6% and 45.14% | Percent Inhibition (COX-2), single replicates (COX-2; 1000, listed as Comp 2): 50.07% and 54.17% and 54.72% | IC50 (COX-2; read-out: IC50): 2.88 mM | IC50 (COX-2; read-out: IC50 (µg/ml) (converted)): 2.88 mM | Writhes, individual values (Swiss albino mice; 10mg, listed as Comp 2): 59.2 and 60.82 and 60.05 | Writhes, individual values (Swiss albino mice; 20mg, listed as Comp 2): 55.1 and 54.26 and 56.7 | Writhes, individual values (Swiss albino mice; 25mg, listed as Comp 2): 49.8 and 50.8 and 49.1 | Writhes, individual values (Swiss albino mice; 50mg, listed as Comp 2): 41.02 and 43.67 and 40.12 | % analgesic activity (writhing inhibition) (Swiss albino mice; dose 10 mg/kg): 1.86^ns % | % analgesic activity (writhing inhibition) (Swiss albino mice; dose 10 mg/kg, listed as compound 2, 10 mg/kg): 01.86% | Mean writhes (Swiss albino mice; dose 10 mg/kg, writhes counted 5-30 min after acetic acid, 10 mg/kg): 60.02 ± 0.90 | Mean writhes (Swiss albino mice; dose 10 mg/kg, writhes counted 5-30 min after acetic acid, listed as Comp 2, 10 mg/kg): 60.0233 | % analgesic activity (writhing inhibition) (Swiss albino mice; dose 20 mg/kg): 9.49^ns % | Mean writhes (Swiss albino mice; dose 20 mg/kg): 55.35 ± 0.87 | Mean writhes (Swiss albino mice; dose 20 mg/kg, listed as Comp 2, 20 mg/kg): 55.3533 | % analgesic activity (writhing inhibition) (Swiss albino mice; dose 25 mg/kg): 18.41^* % | Mean writhes (Swiss albino mice; dose 25 mg/kg): 49.90 ± 0.20 | Mean writhes (Swiss albino mice; dose 25 mg/kg, listed as Comp 2, 25 mg/kg): 49.9 | % analgesic activity (writhing inhibition) (Swiss albino mice; dose 50 mg/kg): 31.98^*** % | Mean writhes (Swiss albino mice; dose 50 mg/kg): 41.60 ± 1.24 | Mean writhes (Swiss albino mice; dose 50 mg/kg, listed as Comp 2, 50 mg/kg): 41.6033
